Data reported in patent US8044204B2, “8-methoxy-9H-isothiazolo[5,4-b]quinoline-3,4-diones and related compounds as anti-infective agents” (Achillion Pharmaceuticals, Inc., priority 2005, dated 2011).

Legend:
Type in all cases: cell-based
S. aureus ATCC 29213 = test: Minimum Inhibitory Concentration (MIC) assay, S. aureus; conditions: Staphylococcus aureus, ATCC29213; broth microdilution; read-out: MIC against S. Aureus
Experimental: (§1) The antimicrobial activity of the compounds of the invention may be evaluated by a number of methods, including the following visual minimum inhibitory concentration (MIC) assay. This assay determines the minimum concentration of compound required to inhibit growth of a bacterial strain.
(§2) Minimum Inhibitory Concentration (MIC) Assay
(§3) Whole-cell antibacterial activity is determined by broth microdilution using conditions recommended by the NCCLS (see National Committee for Clinical Laboratory Standards. 2001. Performance standards for antimicrobial susceptibility testing: 11th informational supplement. Vol. 21, no. 1, M100-S11. National Committee for Clinical Laboratory Standards, Wayne, Pa.). Test compounds are dissolved in DMSO and diluted 1:50 in Mueller-Hinton II broth (Becton-Dickinson) to produce a 256 μg/ml stock solution. In a 96-well microtiter plate, the compound solution is serially two-fold diluted in Mueller-Hinton II broth. After the compounds are diluted, a 50 μl aliquot of the test organism (˜1×10^6 cfu/mL) is added to each well of the microtiter plate. The final test concentrations ranges from 0.125-128 μg/mL. Inoculated plates are incubated in ambient air at 37° C. for 18 to 24 hours. The organisms selected for testing included laboratory strains S. aureus ATCC 29213 and E. coli ATCC 25922 (strains purchased from American Type Culture Collection, Manassas, Va.), S. aureus FQR700699, and Paeruginosa 27853. The minimum inhibitory concentration (MIC) is determined as the lowest concentration of compound that inhibited visible growth of the test organism.

E. coli ATCC 25922 = test: Minimum Inhibitory Concentration (MIC) assay, E. coli; conditions: Escherichia coli, ATCC25922; broth microdilution; read-out: MIC against E. coli
Experimental: as §1, §2, §3

MRSA strain ATCC 700699 = test: Minimum Inhibitory Concentration (MIC) assay, Methicillin Resistant S. Aureus; conditions: Staphylococcus aureus; broth microdilution; read-out: MIC against Methicillin Resistant S. Aureus
Text: It has been unexpectedly discovered that substitution of compounds of Formula I and Formula II with a methoxy substituent at the R8 position increases the anti-microbial activity of the compound against Methicillin resistant Staphylococcus Aureus bacteria while at the same time decreasing the cellular toxicity of the compound. The simultaneous increase in compound activity and decrease in compound toxicity provides a greater therapeutic range for compounds of Formula I and Formula II in which R8 is methoxy; i.e. the range of doses of such compounds that will produce beneficial effects without harmful side effects is increased. […] Therapeutic range is determined using a standard assay of cytotoxicity such as the Alamar blue assay provided in Example 10.
as §1, §2, §3

Row | SMILES | MIC (S. aureus ATCC 29213) | MIC (E. coli ATCC 25922) | MIC (MRSA strain ATCC 700699)
1 | CCn1c2cc(N3CCC(N(C)C)C3)c(F)cc2c(=O)c2c(=O)[nH]sc21 (stereo not shown) [Compound 34, 7-(3-(dimethyl-amino)pyrrolidin-1-yl)-9-ethyl-6-fluoroisothia-zolo[5,4-b]quinoline-3,4(2H,9H)-dione] | ≤ 1 µg/mL | ≤ 1 µg/mL | –
2 | CCn1c2cc(NCc3ccncc3)c(F)cc2c(=O)c2c(=O)[nH]sc21 [Compound 35, 9-ethyl-6-fluoro-7-(pyridin-4-ylmethylamino) isothiazolo[5,4-b]quinoline-3,4(2H,9H)-dione] | ≤ 1 µg/mL | ≤ 1 µg/mL | –
3 | CCn1c2cc(N3CCN(CCN(C)C)CC3)c(F)cc2c(=O)c2c(=O)[nH]sc21 [Compound 36, 7-(4-(2-(dimethyl-amino)ethyl)piperazin-1-yl)-9-ethyl-6-fluoroisothia-zolo[5,4-b]quinoline-3,4(2H,9H)-dione] | ≤ 1 µg/mL | ≤ 1 µg/mL | –
4 | CCn1c2cc(N3CCSCC3)c(F)cc2c(=O)c2c(=O)[nH]sc21 [Compound 37, 9-ethyl-6-fluoro-7-thiomorpho-linoiso-thiazolo[5,4-b]quinoline-3,4(2H,9H)-dione] | ≤ 1 µg/mL | ≤ 1 µg/mL | –
5 | O=c1[nH]sc2c1c(=O)c1cc(F)c(N3CCC4(CC3)OCCO4)cc1n2C1CC1 [Compound 39] | ≤ 1 µg/mL | ≤ 1 µg/mL | –
6 | O=C1CCN(c2cc3c(cc2F)c(=O)c2c(=O)[nH]sc2n3C2CC2)CC1 [Compound 40, 9-cyclopropyl-6-fluoro-7-(4-oxo-piperidin-1-yl)isothia-zolo[5,4-b]quinoline-3,4(2H,9H)-dione] | ≤ 1 µg/mL | ≤ 1 µg/mL | –
7 | O=c1[nH]sc2c1c(=O)c1cc(F)c(N3CCC(O)CC3)cc1n2C1CC1 [Compound 41, 9-cyclopropyl-6-fluoro-7-(4-hydroxy-piperidin-1-yl)isothia-zolo[5,4-b]quinoline-3,4(2H,9H)-dione] | ≤ 1 µg/mL | ≤ 1 µg/mL | –
8 | CC(=O)N1CCN(c2cc3c(cc2F)c(=O)c2c(=O)[nH]sc2n3C2CC2)CC1 [Compound 44, 7-(4-acetyl-piperazin-1-yl)-9-cyclo-propyl-6-fluoroiso-thiazolo[5,4-b]quinoline-3,4(2H,9H)-dione] | ≤ 1 µg/mL | ≤ 1 µg/mL | –
9 | CCn1c2s[nH]c(=O)c2c(=O)c2cc(F)c(N3CC[C@@H](C(C)(C)N)C3)c(OC)c21 [Compound 59, (R)-7-(3-(2-aminopropan-2-yl)pyrrolidin-1-yl)-9-ethyl-6-fluoro-8-methoxyiso-thiazolo[5,4-b]quinoline-3,4(2H,9H)-dione] | ≤ 1 µg/mL | – | ≤ 1 µg/mL
10 | COc1c(N2CCC(CN)C2)c(F)cc2c(=O)c3c(=O)[nH]sc3n(C3CC3)c12 (stereo not shown) [Compound 66, 7-(3-(aminomethyl)-pyrrolidin-1-yl)-9-cyclopropyl-6-fluoro-8-methoxyiso-thiazolo[5,4-b]quinoline-3,4(2H,9H)-dione] | ≤ 1 µg/mL | – | ≤ 1 µg/mL
11 | COc1c(N2C[C@H]3CCCN[C@H]3C2)ccc2c(=O)c3c(=O)[nH]sc3n(C3CC3)c12 [Compound 78, 9-cyclopropyl-8-methoxy-7-((4aR,7aR)octahydro-pyrrolo[3,4-b]pyridin-6-yl)isothia-zolo[5,4-b]quinoline-3,4(2H,9H)-dione] | ≤ 1 µg/mL | ≤ 1 µg/mL | –
12 | CNC(C)(C)[C@@H]1CCN(c2ccc3c(=O)c4c(=O)[nH]sc4n(C4CC4)c3c2OC)C1 [Compound 79, (R)-9-cyclo-propyl-8-methoxy-7-(3-(2-(methyl-amino)propan-2-yl)pyrrolidin-1-yl)isothia-zolo[5,4-b]quinoline-3,4(2H,9H)-dione] | ≤ 1 µg/mL | ≤ 1 µg/mL | –
13 | COc1c(N2CC[C@@H](C(C)N(C)C)C2)c(F)cc2c(=O)c3c(=O)[nH]sc3n(C3CC3)c12 (stereo partly drawn) [Compound 81, (R)-9-cyclo-propyl-7-(3-(1-(di-methylamino)ethyl)pyrrolidin-1-yl)-6-fluoro-8-methoxyiso-thiazolo[5,4-b]quinoline-3,4(2H,9H)-dione] | ≤ 1 µg/mL | ≤ 1 µg/mL | –
14 | COc1c(N2CC[C@@H](C(C)(C)N(C)C)C2)c(F)cc2c(=O)c3c(=O)[nH]sc3n(C3CC3)c12 [Compound 82, (R)-9-cyclo-propyl-7-(3-(2-(dimethyl-amino)propan-2-yl)pyrrolidin-1-yl)-6-fluoro-8-methoxyiso-thiazolo[5,4-b]quinoline-3,4(2H,9H)-dione] | ≤ 1 µg/mL | ≤ 1 µg/mL | –
15 | COc1cc2c(=O)c3c(=O)[nH]sc3n(C3CC3)c2c(F)c1N1CC[C@@H](C(C)(C)N)C1 [Compound 83, (R)-7-(3-(2-aminopropan-2-yl)pyrrolidin-1-yl)-9-cyclopropyl-8-fluoro-6-methoxyiso-thiazolo[5,4-b]quinoline-3,4(2H,9H)-dione] | ≤ 1 µg/mL | ≤ 1 µg/mL | –
16 | COc1cc2c(=O)c3c(=O)[nH]sc3n(C3CC3)c2c(F)c1N1CC[C@@H](CN)C1 [Compound 85, (S)-7-(3-(aminomethyl)-pyrrolidin-1-yl)-9-cyclo-propyl-8-fluoro-6-methoxyiso-thiazolo[5,4-b]quinoline-3,4(2H,9H)-dione] | ≤ 1 µg/mL | ≤ 1 µg/mL | –
17 | COc1c(N2CC[C@@H](CN(C)C)C2)c(F)cc2c(=O)c3c(=O)[nH]sc3n(C3CC3)c12 [Compound 86, (S)-9-cyclo-propyl-7-(3-((dimethyl-amino)methyl)pyrrolidin-1-yl)-6-fluoro-8-methoxyiso-thiazolo[5,4-b]quinoline-3,4(2H,9H)-dione] | ≤ 1 µg/mL | ≤ 1 µg/mL | –
18 | COc1c(N2CC[C@H](CN)C2)ccc2c(=O)c3c(=O)[nH]sc3n(C3CC3)c12 [Compound 90, (R)-7-(3-(aminomethyl)-pyrrolidin-1-yl)-9-cyclopropyl-8-methoxyiso-thiazolo[5,4-b]quinoline-3,4(2H,9H)-dione] | ≤ 1 µg/mL | ≤ 1 µg/mL | –
19 | CC[C@@H](NC)[C@@H]1CCN(c2c(F)cc3c(=O)c4c(=O)[nH]sc4n(C4CC4)c3c2OC)C1 [Compound 92, 9-cyclopropyl-6-fluoro-8-methoxy-7-((R)-3-((R)-1-(methylamino)-propyl)pyrrolidin-1-yl)isothia-zolo[5,4-b]quinoline-3,4(2H,9H)-dione] | ≤ 1 µg/mL | – | ≤ 1 µg/mL
20 | COc1c(N2CC[C@@H](CNC3CC3)C2)ccc2c(=O)c3c(=O)[nH]sc3n(C3CC3)c12 [Compound 101, (S)-9-cyclo-propyl-7-(3-((cyclopropyl-amino)methyl)-pyrrolidin-1-yl)-8-methoxyiso-thiazolo[5,4-b]quinoline-3,4(2H,9H)-dione] | ≤ 1 µg/mL | ≤ 1 µg/mL | –
21 | COc1c(N2CC(N)C2)c(F)cc2c(=O)c3c(=O)[nH]sc3n(C3CC3)c12 [Compound 105, 7-(3-amino-azetidin-1-yl)-9-cyclopropyl-6-fluoro-8-methoxyiso-thiazolo[5,4-b]quinoline-3,4(2H,9H)-dione] | ≤ 1 µg/mL | ≤ 1 µg/mL | –
22 | CCNC1CN(c2c(F)cc3c(=O)c4c(=O)[nH]sc4n(C4CC4)c3c2OC)C1 [Compound 106, 9-cyclopropyl-7-(3-(ethylamino)-azetidin-1-yl)-6-fluoro-8-methoxyiso-thiazolo[5,4-b]quinoline-3,4(2H,9H)-dione] | ≤ 1 µg/mL | ≤ 1 µg/mL | –
23 | CN[C@H](C)[C@@H]1CCN(c2c(F)cc3c(=O)c4c(=O)[nH]sc4n(C4CC4)c3c2OC)C1 [Compound 107, 9-cyclopropyl-6-fluoro-8-methoxy-7-((R)-3-((R)-1-(methyl-amino)ethyl)pyrrolidin-1-yl)isothia-zolo[5,4-b]quinoline-3,4(2H,9H)-dione] | ≤ 1 µg/mL | – | ≤ 1 µg/mL
24 | CN[C@@H](C)[C@@H]1CCN(c2c(F)cc3c(=O)c4c(=O)[nH]sc4n(C4CC4)c3c2OC)C1 [Compound 108, 9-cyclopropyl-6-fluoro-8-methoxy-7-((R)-3-((S)-1-(methylamino)-ethyl)pyrrolidin-1-yl)isothia-zolo[5,4-b]quinoline-3,4(2H,9H)-dione] | ≤ 1 µg/mL | – | ≤ 1 µg/mL
25 | COc1c(N2CC[C@@H]([C@H](C)N)C2)ccc2c(=O)c3c(=O)[nH]sc3n(C3CC3)c12 [Compound 111, 7-((R)-3-((S)-1-aminoethyl)-pyrrolidin-1-yl)-9-cyclo-propyl-8-methoxyiso-thiazolo[5,4-b]quinoline-3,4(2H,9H)-dione] | ≤ 1 µg/mL | – | ≤ 1 µg/mL
26 | COc1c(N2CC[C@@H](C(C)NC(C)C)C2)c(F)cc2c(=O)c3c(=O)[nH]sc3n(C3CC3)c12 (stereo partly drawn) [Compound 112, (R)-9-cyclo-propyl-6-fluoro-7-(3-(1-(isopropyl-amino)ethyl)pyrrolidin-1-yl)-8-methoxyiso-thiazolo[5,4-b]quinoline-3,4(2H,9H)-dione] | ≤ 1 µg/mL | – | ≤ 1 µg/mL
